In article doi:10.1101/2024.08.13.607785v1 (biorxiv, 2024):
Like-named read-outs stand apart in the source and are kept apart here.

Assays:
Experiment in all cases: biochemical
Parameters in all cases: species or system human cell line lysate
[1] = molecular target: Isoform 2 of Mitogen-activated protein kinase kinase kinase 20 ; MAP3K20 ; Q9NYL2-2 (Homo sapiens, UniProt Q9NYL2)
[2] = molecular target: T1, Tyrosine-protein kinase Tec ; TEC ; P42680 (Homo sapiens, UniProt P42680)
T1 sequence (P42680 1-631): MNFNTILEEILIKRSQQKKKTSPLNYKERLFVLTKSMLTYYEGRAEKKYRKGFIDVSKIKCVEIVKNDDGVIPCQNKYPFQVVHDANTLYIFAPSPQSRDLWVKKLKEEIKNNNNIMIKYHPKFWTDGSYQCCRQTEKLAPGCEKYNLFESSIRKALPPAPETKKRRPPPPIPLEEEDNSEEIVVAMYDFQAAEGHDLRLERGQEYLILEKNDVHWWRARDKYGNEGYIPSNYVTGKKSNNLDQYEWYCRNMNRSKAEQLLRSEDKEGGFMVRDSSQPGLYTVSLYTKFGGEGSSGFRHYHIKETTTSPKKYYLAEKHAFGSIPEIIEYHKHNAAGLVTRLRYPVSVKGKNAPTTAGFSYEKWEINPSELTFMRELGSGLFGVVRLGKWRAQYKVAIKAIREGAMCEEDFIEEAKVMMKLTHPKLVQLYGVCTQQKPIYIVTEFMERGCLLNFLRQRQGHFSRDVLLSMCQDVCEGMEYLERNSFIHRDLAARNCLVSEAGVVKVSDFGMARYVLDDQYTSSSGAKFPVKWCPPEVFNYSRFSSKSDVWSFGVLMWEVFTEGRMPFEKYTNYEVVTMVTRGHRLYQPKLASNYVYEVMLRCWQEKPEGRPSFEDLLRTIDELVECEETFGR

[3] = molecular target: Tyrosine-protein kinase SYK ; SYK ; P43405 (Homo sapiens, UniProt P43405)
[4] = molecular target: Serine/threonine-protein kinase Nek9 ; NEK9 ; Q8TD19 (Homo sapiens, UniProt Q8TD19)
[5] = molecular target: Bone morphogenetic protein receptor type-1A ; BMPR1A ; P36894 (Homo sapiens, UniProt P36894)
[6] = molecular target: Serine/threonine-protein kinase haspin ; HASPIN ; Q8TF76 (Homo sapiens, UniProt Q8TF76)
[7] = molecular target: Isoform 4 of Casein kinase I isoform gamma-3 ; CSNK1G3 ; Q9Y6M4-4 (Homo sapiens, UniProt Q9Y6M4)
[8] = molecular target: Serine/threonine-protein kinase 3 ; STK3 ; Q13188 (Homo sapiens, UniProt Q13188)
[9] = molecular target: Serine/threonine-protein kinase TBK1 ; TBK1 ; Q9UHD2 (Homo sapiens, UniProt Q9UHD2)
[10] = molecular target: Casein kinase II subunit alpha' ; CSNK2A2 ; P19784 (Homo sapiens, UniProt P19784)
[11] = molecular target: Beta-adrenergic receptor kinase 2 ; GRK3 ; P35626 (Homo sapiens, UniProt P35626)
[12] = molecular target: Isoform 3 of Citron Rho-interacting kinase ; CIT ; O14578-3 (Homo sapiens, UniProt O14578)
[13] = molecular target: 5'-AMP-activated protein kinase catalytic subunit alpha-2 ; PRKAA2 ; P54646 (Homo sapiens, UniProt P54646)
[14] = molecular target: LIM domain kinase 2 ; LIMK2 ; P53671 (Homo sapiens, UniProt P53671)
[15] = molecular target: Dual specificity protein kinase CLK4 ; CLK4 ; Q9HAZ1 (Homo sapiens, UniProt Q9HAZ1)
[16] = molecular target: Isoform 2 of Casein kinase I isoform delta ; CSNK1D ; P48730-2 (Homo sapiens, UniProt P48730)
[17] = molecular target: Serine/threonine-protein kinase PAK 4 ; PAK4 ; O96013 (Homo sapiens, UniProt O96013)
[18] = molecular target: Serine/threonine-protein kinase 35 ; STK35 ; Q8TDR2 (Homo sapiens, UniProt Q8TDR2)
[19] = molecular target: Serine/threonine-protein kinase ULK3 ; ULK3 ; Q6PHR2 (Homo sapiens, UniProt Q6PHR2)
[20] = read-out: BAY-1143572 (10 µM) / %Intensity relative to DMSO
[21] = read-out: BAY-1251152 (10 µM) / %Intensity relative to DMSO

Serine/threonine-protein kinase ULK3 ; ULK3 ; Q6PHR2, sequence (Q6PHR2 whole entry, one chain of several): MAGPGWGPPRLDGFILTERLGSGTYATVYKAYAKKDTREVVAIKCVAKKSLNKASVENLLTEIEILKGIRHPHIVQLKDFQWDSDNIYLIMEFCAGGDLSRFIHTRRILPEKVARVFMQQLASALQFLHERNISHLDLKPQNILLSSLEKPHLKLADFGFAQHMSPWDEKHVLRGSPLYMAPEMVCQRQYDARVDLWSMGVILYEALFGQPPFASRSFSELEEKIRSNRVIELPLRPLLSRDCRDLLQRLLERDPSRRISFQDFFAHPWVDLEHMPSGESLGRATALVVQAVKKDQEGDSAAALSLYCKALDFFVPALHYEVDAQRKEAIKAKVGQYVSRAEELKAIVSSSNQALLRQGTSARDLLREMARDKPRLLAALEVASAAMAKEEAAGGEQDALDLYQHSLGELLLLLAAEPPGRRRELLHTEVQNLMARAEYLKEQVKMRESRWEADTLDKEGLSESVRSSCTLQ
Bone morphogenetic protein receptor type-1A ; BMPR1A ; P36894, sequence (P36894 whole entry): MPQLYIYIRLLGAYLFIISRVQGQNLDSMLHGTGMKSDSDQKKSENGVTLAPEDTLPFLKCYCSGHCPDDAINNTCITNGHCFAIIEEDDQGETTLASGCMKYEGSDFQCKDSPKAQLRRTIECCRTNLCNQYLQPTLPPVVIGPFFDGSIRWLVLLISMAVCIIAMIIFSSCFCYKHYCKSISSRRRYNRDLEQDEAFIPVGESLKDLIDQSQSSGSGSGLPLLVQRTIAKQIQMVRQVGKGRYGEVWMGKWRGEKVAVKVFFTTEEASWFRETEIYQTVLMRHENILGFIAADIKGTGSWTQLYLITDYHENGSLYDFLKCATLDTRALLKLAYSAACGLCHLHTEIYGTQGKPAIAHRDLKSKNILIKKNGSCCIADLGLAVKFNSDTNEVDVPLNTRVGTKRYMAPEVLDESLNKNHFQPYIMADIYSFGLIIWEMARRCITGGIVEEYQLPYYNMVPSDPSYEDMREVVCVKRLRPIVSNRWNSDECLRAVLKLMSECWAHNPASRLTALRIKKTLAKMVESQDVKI
Isoform 2 of Casein kinase I isoform delta ; CSNK1D ; P48730-2, sequence (P48730 whole entry, canonical isoform): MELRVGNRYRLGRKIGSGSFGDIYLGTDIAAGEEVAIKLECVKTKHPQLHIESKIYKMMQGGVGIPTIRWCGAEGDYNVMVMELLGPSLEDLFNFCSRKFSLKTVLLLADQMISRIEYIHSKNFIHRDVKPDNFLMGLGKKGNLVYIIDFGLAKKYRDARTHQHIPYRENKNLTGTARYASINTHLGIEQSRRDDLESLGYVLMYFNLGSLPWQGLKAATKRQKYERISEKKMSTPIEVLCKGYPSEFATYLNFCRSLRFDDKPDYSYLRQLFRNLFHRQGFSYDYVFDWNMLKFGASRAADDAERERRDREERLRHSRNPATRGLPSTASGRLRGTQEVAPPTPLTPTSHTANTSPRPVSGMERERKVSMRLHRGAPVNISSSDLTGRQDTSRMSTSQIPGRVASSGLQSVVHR
LIM domain kinase 2 ; LIMK2 ; P53671, sequence (P53671 whole entry, the tested form may be a part): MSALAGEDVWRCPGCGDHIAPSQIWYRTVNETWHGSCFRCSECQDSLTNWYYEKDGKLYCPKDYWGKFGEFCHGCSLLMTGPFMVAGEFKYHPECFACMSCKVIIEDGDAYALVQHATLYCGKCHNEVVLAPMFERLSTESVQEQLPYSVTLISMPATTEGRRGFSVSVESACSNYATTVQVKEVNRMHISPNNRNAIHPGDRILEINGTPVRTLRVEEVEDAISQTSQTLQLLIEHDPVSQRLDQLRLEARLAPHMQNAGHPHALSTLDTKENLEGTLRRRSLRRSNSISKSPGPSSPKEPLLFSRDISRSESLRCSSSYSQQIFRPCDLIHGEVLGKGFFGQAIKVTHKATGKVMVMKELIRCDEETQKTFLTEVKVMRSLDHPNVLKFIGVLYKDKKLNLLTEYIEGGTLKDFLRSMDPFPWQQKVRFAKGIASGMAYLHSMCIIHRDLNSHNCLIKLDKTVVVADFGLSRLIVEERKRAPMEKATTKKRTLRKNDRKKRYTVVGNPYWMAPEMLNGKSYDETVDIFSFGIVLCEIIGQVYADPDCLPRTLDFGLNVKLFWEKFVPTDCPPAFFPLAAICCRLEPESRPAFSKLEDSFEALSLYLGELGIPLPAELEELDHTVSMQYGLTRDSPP
Isoform 3 of Citron Rho-interacting kinase ; CIT ; O14578-3, sequence (O14578 whole entry, canonical isoform): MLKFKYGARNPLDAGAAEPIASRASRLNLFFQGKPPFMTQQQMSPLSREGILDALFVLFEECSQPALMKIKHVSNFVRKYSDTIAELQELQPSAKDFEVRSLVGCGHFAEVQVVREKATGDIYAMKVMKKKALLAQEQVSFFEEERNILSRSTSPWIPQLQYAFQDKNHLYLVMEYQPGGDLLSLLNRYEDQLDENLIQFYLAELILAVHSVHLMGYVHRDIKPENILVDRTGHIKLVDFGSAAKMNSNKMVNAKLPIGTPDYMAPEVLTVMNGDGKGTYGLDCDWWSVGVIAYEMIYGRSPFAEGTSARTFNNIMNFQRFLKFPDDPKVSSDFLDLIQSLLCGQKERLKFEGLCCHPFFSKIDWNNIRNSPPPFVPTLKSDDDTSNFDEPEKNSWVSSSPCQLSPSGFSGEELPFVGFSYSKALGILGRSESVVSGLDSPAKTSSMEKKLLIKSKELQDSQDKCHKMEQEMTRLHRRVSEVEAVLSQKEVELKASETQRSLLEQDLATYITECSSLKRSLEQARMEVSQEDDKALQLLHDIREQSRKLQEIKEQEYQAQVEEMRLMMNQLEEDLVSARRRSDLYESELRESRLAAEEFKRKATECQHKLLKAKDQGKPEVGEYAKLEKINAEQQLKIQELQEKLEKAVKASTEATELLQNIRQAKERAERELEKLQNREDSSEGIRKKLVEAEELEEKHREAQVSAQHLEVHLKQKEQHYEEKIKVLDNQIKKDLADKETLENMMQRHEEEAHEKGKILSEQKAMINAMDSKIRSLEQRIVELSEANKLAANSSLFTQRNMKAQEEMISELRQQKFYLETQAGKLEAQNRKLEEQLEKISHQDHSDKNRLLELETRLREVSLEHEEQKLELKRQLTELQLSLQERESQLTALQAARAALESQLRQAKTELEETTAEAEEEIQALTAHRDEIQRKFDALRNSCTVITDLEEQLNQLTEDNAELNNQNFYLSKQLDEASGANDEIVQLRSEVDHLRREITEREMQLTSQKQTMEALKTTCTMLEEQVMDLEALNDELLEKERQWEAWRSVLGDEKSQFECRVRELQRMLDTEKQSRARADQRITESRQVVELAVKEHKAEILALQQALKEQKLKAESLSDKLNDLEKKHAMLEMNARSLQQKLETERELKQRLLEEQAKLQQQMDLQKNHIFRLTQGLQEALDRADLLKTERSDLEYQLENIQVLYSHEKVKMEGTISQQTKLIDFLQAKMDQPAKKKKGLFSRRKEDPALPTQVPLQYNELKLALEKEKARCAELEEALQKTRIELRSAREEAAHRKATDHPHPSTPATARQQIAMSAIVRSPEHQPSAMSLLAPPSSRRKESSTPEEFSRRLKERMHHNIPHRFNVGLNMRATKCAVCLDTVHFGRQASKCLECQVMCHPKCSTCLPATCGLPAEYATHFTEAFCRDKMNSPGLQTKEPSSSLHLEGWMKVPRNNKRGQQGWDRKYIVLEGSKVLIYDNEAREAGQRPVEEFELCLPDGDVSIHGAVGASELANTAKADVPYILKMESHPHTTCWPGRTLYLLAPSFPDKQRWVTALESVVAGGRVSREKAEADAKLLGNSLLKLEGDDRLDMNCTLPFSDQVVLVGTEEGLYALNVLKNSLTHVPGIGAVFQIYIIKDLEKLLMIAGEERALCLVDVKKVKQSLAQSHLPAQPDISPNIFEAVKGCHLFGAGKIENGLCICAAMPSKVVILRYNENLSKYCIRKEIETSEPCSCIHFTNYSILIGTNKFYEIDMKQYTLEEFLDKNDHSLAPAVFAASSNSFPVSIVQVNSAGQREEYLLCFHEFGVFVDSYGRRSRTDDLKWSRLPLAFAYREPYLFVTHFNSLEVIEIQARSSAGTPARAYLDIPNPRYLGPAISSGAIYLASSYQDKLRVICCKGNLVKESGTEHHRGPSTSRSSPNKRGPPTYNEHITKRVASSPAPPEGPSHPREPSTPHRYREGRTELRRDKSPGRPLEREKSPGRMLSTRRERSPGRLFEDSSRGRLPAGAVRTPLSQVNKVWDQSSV
Serine/threonine-protein kinase haspin ; HASPIN ; Q8TF76, sequence (Q8TF76 whole entry, canonical isoform, one chain of several): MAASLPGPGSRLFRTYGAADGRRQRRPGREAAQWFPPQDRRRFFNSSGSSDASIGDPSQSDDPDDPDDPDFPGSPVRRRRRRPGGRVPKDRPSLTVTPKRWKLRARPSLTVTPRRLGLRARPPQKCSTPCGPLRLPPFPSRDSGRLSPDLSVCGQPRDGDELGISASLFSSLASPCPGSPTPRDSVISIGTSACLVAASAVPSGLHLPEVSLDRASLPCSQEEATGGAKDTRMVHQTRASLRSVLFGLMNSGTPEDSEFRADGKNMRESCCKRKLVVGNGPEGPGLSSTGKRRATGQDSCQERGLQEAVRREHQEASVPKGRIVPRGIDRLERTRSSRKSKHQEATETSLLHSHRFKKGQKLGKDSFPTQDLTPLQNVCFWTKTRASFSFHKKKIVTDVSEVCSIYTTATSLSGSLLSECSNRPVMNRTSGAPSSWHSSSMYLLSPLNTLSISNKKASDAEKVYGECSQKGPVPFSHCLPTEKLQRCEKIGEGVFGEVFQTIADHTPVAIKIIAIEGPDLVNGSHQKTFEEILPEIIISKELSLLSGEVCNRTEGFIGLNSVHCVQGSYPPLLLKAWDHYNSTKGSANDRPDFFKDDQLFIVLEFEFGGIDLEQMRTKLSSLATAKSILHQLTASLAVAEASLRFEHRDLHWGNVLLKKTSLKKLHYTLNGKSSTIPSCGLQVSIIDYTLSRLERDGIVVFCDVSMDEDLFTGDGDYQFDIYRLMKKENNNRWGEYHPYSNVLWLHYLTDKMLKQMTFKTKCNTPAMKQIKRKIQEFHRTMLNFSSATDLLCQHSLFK

SMILES: COc1cc(F)ccc1-c1ncnc(Nc2cccc(C[S@](C)(=N)=O)c2)n1 [BAY-1143572]
- remaining activity at 10 µM [1, 20]: 65.2%
- remaining activity at 10 µM [2, 20]: 89.2%
- remaining activity at 10 µM [3, 20]: 106%
- remaining activity at 10 µM [4, 20]: 110%
- remaining activity at 10 µM [5, 20]: 164%
- remaining activity at 10 µM [6, 20]: 75.8%
- remaining activity at 10 µM [7, 20]: 113%
- remaining activity at 10 µM [8, 20]: 103%
- remaining activity at 10 µM [9, 20]: 94.7%
- remaining activity at 10 µM [10, 20]: 114%
- remaining activity at 10 µM [11, 20]: 88.8%
- remaining activity at 10 µM [12, 20]: 99.1%
- remaining activity at 10 µM [13, 20]: 115%
- remaining activity at 10 µM [14, 20]: 78%
- remaining activity at 10 µM [15, 20]: 141%
- remaining activity at 10 µM [16, 20]: 108%
- remaining activity at 10 µM [17, 20]: 105%
- remaining activity at 10 µM [18, 20]: 115%
- remaining activity at 10 µM [19, 20]: 93.7%

SMILES: COc1cc(F)ccc1-c1cc(Nc2cc(CS(C)(=N)=O)ccn2)ncc1F (centres unmarked) [BAY-1251152]
- remaining activity at 10 µM [1, 21]: 81.6%
- remaining activity at 10 µM [2, 21]: 104%
- remaining activity at 10 µM [3, 21]: 94%
- remaining activity at 10 µM [4, 21]: 110%
- remaining activity at 10 µM [5, 21]: 122%
- remaining activity at 10 µM [6, 21]: 68.5%
- remaining activity at 10 µM [7, 21]: 110%
- remaining activity at 10 µM [8, 21]: 91.9%
- remaining activity at 10 µM [9, 21]: 94%
- remaining activity at 10 µM [10, 21]: 98.2%
- remaining activity at 10 µM [11, 21]: 83.7%
- remaining activity at 10 µM [12, 21]: 89.3%
- remaining activity at 10 µM [13, 21]: 113%
- remaining activity at 10 µM [14, 21]: 109%
- remaining activity at 10 µM [15, 21]: 133%
- remaining activity at 10 µM [16, 21]: 105%
- remaining activity at 10 µM [17, 21]: 110%
- remaining activity at 10 µM [18, 21]: 113%
- remaining activity at 10 µM [19, 21]: 94.5%
